For orientation: MIC means the smallest concentration in the dilution series that meets the test's criterion for growth inhibition. Low values mean inhibition by little substance, high ones a need for much substance.

Values after ≈ are worked out from the molar mass of the structure shown.

The source of these data is ChEMBL document CHEMBL1134924, “An efficient and practical method for solid-phase synthesis of tripeptide-bearing glycopeptide antibiotics: combinatorial parallel synthesis of carboxamide derivatives of chloroorienticin B” (2002).

What all share (type): functional
The subject of experiment [1] is Staphylococcus aureus. In words: In vitro antibacterial activity against MRSA (Methicillin Resistant Staphylococcus aureus SR-3637).
In experiment [2] the test system is Enterococcus faecium. In words: In vitro antibacterial activity against VRE (Vancomycin Resistant Enterococcus faecium SR-7917).
Experiment [3] concerns Enterococcus faecalis. Description: In vitro antibacterial activity against VRE (Vancomycin Resistant Enterococcus faecalis SR-7914).

Take `CN[C@H](CC(C)C)C(=O)N[C@H]1C(=O)N[C@@H](CC(N)=O)C(=O)N[C@H]2C(=O)N[C@H]3C(=O)NC(C(=O)N[C@@H](C(=O)O)c4cc(O)cc(O)c4-c4cc3ccc4O)[C@H](O[C@H]3C[C@](C)(N)[C@@H](O)[C@H](C)O3)c3ccc(c(Cl)c3)Oc3cc2cc(c3O[C@@H]2O[C@H](CO)[C@@H](O)[C@H](O)[C@H]2O)Oc2ccc(cc2Cl)[C@H]1O`: the MIC in experiment [1] is 0.5 µg/mL (≈ 0.345 µM); in experiment [2], greater than 128 µg/mL; in experiment [3], greater than 128 µg/mL.
Take `CN[C@H](CC(C)C)C(=O)N[C@H]1C(=O)N[C@@H](CC(N)=O)C(=O)N[C@H]2C(=O)N[C@H]3C(=O)NC(C(=O)N[C@@H](C(=O)NC(=O)[C@H](Cc4c[nH]cn4)NC(=O)[C@H](CCCCN)NC(=O)[C@@H](N)Cc4c[nH]c5ccccc45)c4cc(O)cc(O)c4-c4cc3ccc4O)[C@H](O[C@H]3C[C@](C)(N)[C@@H](O)[C@H](C)O3)c3ccc(c(Cl)c3)Oc3cc2cc(c3O[C@@H]2O[C@H](CO)[C@@H](O)[C@H](O)[C@H]2O)Oc2ccc(cc2Cl)[C@H]1O`: the MIC is less than 0.125 µg/mL in experiment [1], 8 µg/mL (≈ 4.21 µM) in experiment [2] and 64 µg/mL (≈ 33.7 µM) in experiment [3].
For `CN[C@H](CC(C)C)C(=O)N[C@H]1C(=O)N[C@@H](CC(N)=O)C(=O)N[C@H]2C(=O)N[C@H]3C(=O)NC(C(=O)N[C@@H](C(=O)NC(=O)[C@H](CO)NC(=O)[C@H](Cc4c[nH]c5ccccc45)NC(=O)[C@@H](N)Cc4ccc(O)cc4)c4cc(O)cc(O)c4-c4cc3ccc4O)[C@H](OC3C[C@](C)(N)[C@@H](O)[C@H](C)O3)c3ccc(c(Cl)c3)Oc3cc2cc(c3O[C@@H]2O[C@H](CO)[C@@H](O)[C@H](O)[C@H]2O)Oc2ccc(cc2Cl)[C@H]1O` (some centres not stated), in that order: 0.5 µg/mL (≈ 0.265 µM), 16 µg/mL (≈ 8.49 µM) and 32 µg/mL (≈ 17 µM).
Taken in the same sequence, the figures for `CN[C@H](CC(C)C)C(=O)N[C@H]1C(=O)N[C@@H](CC(N)=O)C(=O)N[C@H]2C(=O)N[C@H]3C(=O)NC(C(=O)N[C@@H](C(=O)NC(=O)[C@H](Cc4ccc(O)cc4)NC(=O)[C@H](Cc4c[nH]cn4)NC(=O)[C@@H](N)CCCCN)c4cc(O)cc(O)c4-c4cc3ccc4O)[C@H](O[C@H]3C[C@](C)(N)[C@@H](O)[C@H](C)O3)c3ccc(c(Cl)c3)Oc3cc2cc(c3O[C@@H]2O[C@H](CO)[C@@H](O)[C@H](O)[C@H]2O)Oc2ccc(cc2Cl)[C@H]1O` were 1 µg/mL (≈ 0.533 µM), 64 µg/mL (≈ 34.1 µM) and 128 µg/mL (≈ 68.2 µM).
For `CN[C@H](CC(C)C)C(=O)N[C@H]1C(=O)N[C@@H](CC(N)=O)C(=O)N[C@H]2C(=O)N[C@H]3C(=O)NC(C(=O)N[C@@H](C(=O)NC(=O)[C@H](CCCCN)NC(=O)[C@H](Cc4c[nH]c5ccccc45)NC(=O)[C@@H](N)CC(C)C)c4cc(O)cc(O)c4-c4cc3ccc4O)[C@H](O[C@H]3C[C@](C)(N)[C@@H](O)[C@H](C)O3)c3ccc(c(Cl)c3)Oc3cc2cc(c3O[C@@H]2O[C@H](CO)[C@@H](O)[C@H](O)[C@H]2O)Oc2ccc(cc2Cl)[C@H]1O`, in that order: 0.5 µg/mL (≈ 0.267 µM), 16 µg/mL (≈ 8.53 µM) and 32 µg/mL (≈ 17.1 µM).
`CN[C@H](CC(C)C)C(=O)N[C@H]1C(=O)N[C@@H](CC(N)=O)C(=O)N[C@H]2C(=O)N[C@H]3C(=O)NC(C(=O)N[C@@H](C(=O)NC(=O)[C@H](Cc4c[nH]cn4)NC(=O)[C@H](Cc4c[nH]c5ccccc45)NC(=O)[C@@H](N)Cc4ccc(O)cc4)c4cc(O)cc(O)c4-c4cc3ccc4O)[C@H](O[C@H]3C[C@](C)(N)[C@@H](O)[C@H](C)O3)c3ccc(c(Cl)c3)Oc3cc2cc(c3O[C@@H]2O[C@H](CO)[C@@H](O)[C@H](O)[C@H]2O)Oc2ccc(cc2Cl)[C@H]1O`: the MIC in experiment [1] is 0.5 µg/mL (≈ 0.258 µM); in experiment [2], 8 µg/mL (≈ 4.13 µM); in experiment [3] it was 16 µg/mL (≈ 8.27 µM).
Taken in the same sequence, the figures for `CN[C@H](CC(C)C)C(=O)N[C@H]1C(=O)N[C@@H](CC(N)=O)C(=O)N[C@H]2C(=O)N[C@H]3C(=O)NC(C(=O)N[C@@H](C(=O)NC(=O)[C@H](CCCCN)NC(=O)CNC(=O)[C@@H](N)Cc4ccc(O)cc4)c4cc(O)cc(O)c4-c4cc3ccc4O)[C@H](O[C@H]3C[C@](C)(N)[C@@H](O)[C@H](C)O3)c3ccc(c(Cl)c3)Oc3cc2cc(c3O[C@@H]2O[C@H](CO)[C@@H](O)[C@H](O)[C@H]2O)Oc2ccc(cc2Cl)[C@H]1O` were 0.5 µg/mL (≈ 0.278 µM), 64 µg/mL (≈ 35.6 µM) and 128 µg/mL (≈ 71.2 µM).
For the compound `CN[C@H](CC(C)C)C(=O)N[C@H]1C(=O)N[C@@H](CC(N)=O)C(=O)N[C@H]2C(=O)N[C@H]3C(=O)NC(C(=O)N[C@@H](C(=O)NC(=O)[C@H](Cc4ccc(O)cc4)NC(=O)[C@H](Cc4c[nH]c5ccccc45)NC(=O)[C@@H](N)CC(C)C)c4cc(O)cc(O)c4-c4cc3ccc4O)[C@H](O[C@H]3C[C@](C)(N)[C@@H](O)[C@H](C)O3)c3ccc(c(Cl)c3)Oc3cc2cc(c3O[C@@H]2O[C@H](CO)[C@@H](O)[C@H](O)[C@H]2O)Oc2ccc(cc2Cl)[C@H]1O`, the results for the MIC in experiment [1], in experiment [2] and in experiment [3] were 0.5 µg/mL (≈ 0.262 µM), 8 µg/mL (≈ 4.19 µM) and 16 µg/mL (≈ 8.37 µM), respectively.
Turning to `CN[C@H](CC(C)C)C(=O)N[C@H]1C(=O)N[C@@H](CC(N)=O)C(=O)N[C@H]2C(=O)N[C@H]3C(=O)NC(C(=O)N[C@@H](C(=O)NC(=O)[C@H](Cc4ccc(O)cc4)NC(=O)[C@H](Cc4c[nH]c5ccccc45)NC(=O)[C@@H](N)CCC(=O)O)c4cc(O)cc(O)c4-c4cc3ccc4O)[C@H](O[C@H]3C[C@](C)(N)[C@@H](O)[C@H](C)O3)c3ccc(c(Cl)c3)Oc3cc2cc(c3O[C@@H]2O[C@H](CO)[C@@H](O)[C@H](O)[C@H]2O)Oc2ccc(cc2Cl)[C@H]1O`, the MIC in experiment [1] is 8 µg/mL (≈ 4.15 µM); in experiment [2], greater than 128 µg/mL; in experiment [3], greater than 128 µg/mL.
For `CN[C@H](CC(C)C)C(=O)N[C@H]1C(=O)N[C@@H](CC(N)=O)C(=O)N[C@H]2C(=O)N[C@H]3C(=O)NC(C(=O)N[C@@H](C(=O)NC(=O)CNC(=O)[C@H](Cc4c[nH]cn4)NC(=O)[C@@H](N)Cc4c[nH]c5ccccc45)c4cc(O)cc(O)c4-c4cc3ccc4O)[C@H](O[C@H]3C[C@](C)(N)[C@@H](O)[C@H](C)O3)c3ccc(c(Cl)c3)Oc3cc2cc(c3O[C@@H]2O[C@H](CO)[C@@H](O)[C@H](O)[C@H]2O)Oc2ccc(cc2Cl)[C@H]1O`, the minimum inhibitory concentration (MIC) in experiment [1] stood at 0.25 µg/mL (≈ 0.137 µM); in experiment [2] it was 16 µg/mL (≈ 8.75 µM); in experiment [3] it was 32 µg/mL (≈ 17.5 µM).
Turning to `CN[C@H](CC(C)C)C(=O)N[C@H]1C(=O)N[C@@H](CC(N)=O)C(=O)N[C@H]2C(=O)N[C@H]3C(=O)N[C@H](C(=O)N[C@H](C(=O)NC(=O)[C@H](Cc4c[nH]cn4)NC(=O)[C@@H]4CCCN4C(=O)[C@@H](N)Cc4c[nH]c5ccccc45)c4cc(O)cc(O)c4-c4cc3ccc4O)[C@H](O[C@H]3C[C@](C)(N)[C@@H](O)[C@H](C)O3)c3ccc(c(Cl)c3)Oc3cc2cc(c3OC2O[C@H](CO)[C@@H](O)[C@H](O)[C@H]2O)Oc2ccc(cc2Cl)[C@H]1O` (some centres not stated), the MIC came to 0.5 µg/mL (≈ 0.268 µM) in experiment [1], 16 µg/mL (≈ 8.56 µM) in experiment [2] and 64 µg/mL (≈ 34.2 µM) in experiment [3].
Taken in the same sequence, the figures for `CN[C@H](CC(C)C)C(=O)N[C@H]1C(=O)N[C@@H](CC(N)=O)C(=O)N[C@H]2C(=O)N[C@H]3C(=O)NC(C(=O)N[C@@H](C(=O)NC(=O)[C@H](CCCCN)NC(=O)[C@H](Cc4ccc(O)cc4)NC(=O)[C@@H](N)CC(C)C)c4cc(O)cc(O)c4-c4cc3ccc4O)[C@H](O[C@H]3C[C@](C)(N)[C@@H](O)[C@H](C)O3)c3ccc(c(Cl)c3)Oc3cc2cc(c3O[C@@H]2O[C@H](CO)[C@@H](O)[C@H](O)[C@H]2O)Oc2ccc(cc2Cl)[C@H]1O` were 0.5 µg/mL (≈ 0.27 µM), 32 µg/mL (≈ 17.3 µM) and 128 µg/mL (≈ 69.1 µM).
For `CN[C@H](CC(C)C)C(=O)N[C@H]1C(=O)N[C@@H](CC(N)=O)C(=O)N[C@H]2C(=O)N[C@H]3C(=O)NC(C(=O)N[C@@H](C(=O)NC(=O)[C@H](CCC(=O)O)NC(=O)CNC(=O)[C@@H](N)Cc4ccc(O)cc4)c4cc(O)cc(O)c4-c4cc3ccc4O)[C@H](O[C@H]3C[C@](C)(N)[C@@H](O)[C@H](C)O3)c3ccc(c(Cl)c3)Oc3cc2cc(c3O[C@@H]2O[C@H](CO)[C@@H](O)[C@H](O)[C@H]2O)Oc2ccc(cc2Cl)[C@H]1O`, in that order: 4 µg/mL (≈ 2.23 µM), greater than 128 µg/mL and greater than 128 µg/mL.
Regarding `CN[C@H](CC(C)C)C(=O)N[C@H]1C(=O)N[C@@H](CC(N)=O)C(=O)N[C@H]2C(=O)N[C@H]3C(=O)NC(C(=O)N[C@@H](C(=O)NC(=O)CNC(=O)[C@H](Cc4c[nH]c5ccccc45)NC(=O)[C@@H](N)CCCCN)c4cc(O)cc(O)c4-c4cc3ccc4O)[C@H](O[C@H]3C[C@](C)(N)[C@@H](O)[C@H](C)O3)c3ccc(c(Cl)c3)Oc3cc2cc(c3O[C@@H]2O[C@H](CO)[C@@H](O)[C@H](O)[C@H]2O)Oc2ccc(cc2Cl)[C@H]1O`, the MIC worked out at 0.25 µg/mL (≈ 0.137 µM) in experiment [1], 32 µg/mL (≈ 17.6 µM) in experiment [2] and 64 µg/mL (≈ 35.2 µM) in experiment [3].
